Measured values as given in patent US20140343049A1, “DIHYDROFURAN DERIVATIVES AS INSECTICIDAL COMPOUNDS” (SYNGENTA PARTICIPATIONS AG, priority 2011, published 2014).

What was measured:
Format in all cases: in vivo
[1] = tested on: Spodoptera littoralis (Egyptian cotton leaf worm); assay: Spodoptera littoralis (systemic) test, compound in agar taken up by salad roots; conditions: 120 h, application rate 12.5 ppm, checked 5 days after infestation for mortality, repellent effect, feeding behavior, growth regulation
Description: Test compounds were applied by pipette into 24 well plates and mixed with agar. Salad seeds were placed on the agar and the multi well plate is closed by another plate which contains also agar. After 7 days the roots have absorbed the compound and the salad has grown into the lid plate. The salad leafs were now cut off into the lid plate. Spodoptera eggs were pipette through a plastic stencil on a humid gel blotting paper and the plate closed with it. The samples are checked for mortality, repellent effect, feeding behavior, and growth regulation 5 days after infestation. Application rate: 12.5 ppm
Test compounds were applied by pipette into 24 well plates and mixed with agar. Salad seeds were placed on the agar and the multi well plate is closed by another plate which contains also agar. After 7 days the roots have absorbed the compound and the salad has grown into the lid plate. The salad leafs were now cut off into the lid plate. Spodoptera eggs were pipette through a plastic stencil on a humid gel blotting paper and the plate closed with it. The samples are checked for mortality, repellent effect, feeding behavior, and growth regulation 5 days after infestation.

[2] = tested on: Spodoptera littoralis (Egyptian cotton leafworm); assay: Spodoptera littoralis cotton leaf disc spray test; conditions: foliar, 72 h, cotton leaf discs sprayed at 200 ppm, 5 L1 larvae, mortality, feeding behavior, growth regulation 3 days after treatment
Description: Cotton leaf discs were placed on agar in a 24-well microtiter plate and sprayed with test solutions at an application rate of 200 ppm. After drying, the leaf discs were infested with 5 L1 larvae. The samples were checked for mortality, feeding behavior, and growth regulation 3 days after treatment (DAT).

[3] = tested on: Heliothis virescens (tobacco budworm); assay: Heliothis virescens egg test on artificial diet; conditions: 96 h, 200 ppm (concentration in well 18 ppm), eggs 0-24 h old, 4 days, egg mortality, larval mortality, growth regulation
Description: Eggs (0-24 h old) were placed in 24-well microtiter plate on artificial diet and treated with test solutions at an application rate of 200 ppm (concentration in well 18 ppm) by pipetting. After an incubation period of 4 days, samples were checked for egg mortality, larval mortality, and growth regulation.

[4] = tested on: Plutella xylostella (diamond back moth); assay: Plutella xylostella L2 larvae test on artificial diet; conditions: 144 h, 200 ppm (concentration in well 18 ppm), 6 days, larval mortality and growth regulation
Description: 24-well microtiter plate (MTP) with artificial diet was treated with test solutions at an application rate of 200 ppm (concentration in well 18 ppm) by pipetting. After drying, the MTPs were infested with L2 larvae (7-12 per well). After an incubation period of 6 days, samples were checked for larval mortality and growth regulation.

[5] = tested on: Diabrotica balteata (corn root worm); assay: Diabrotica balteata L2 larvae test on artificial diet; conditions: 120 h, 200 ppm (concentration in well 18 ppm), 5 days, larval mortality and growth regulation
How it was run: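 Artificial diet treated with test solution at 200 ppm or 12.5 ppm application rate (in-well concentration stated as 18 ppm), dried, then infested with 6-10 L2 larvae per well. Larval mortality and growth regulation scored after 5 days.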

[6] = tested on: Myzus persicae (green peach aphid); assay: Myzus persicae (sachet) mixed population test; conditions: 120 h, sucrose solution, application rate 12.5 ppm, mortality 5 days after infestation
Description: Test compounds were applied by pipette into 24 well plates and mixed with Sucrose solution. The plates were closed with a stretched Parafilm. A plastic stencil with 24 holes is placed onto the plate and infested pea seedlings were placed directly on the Parafilm. The infested plate is closed with a gel blotting paper and another plastic stencil and then turned upside down. 5 days after infestation the samples were checked on mortality. Application rate: 12.5 ppm.

[7] = tested on: Thrips tabaci (onion thrips); assay: Thrips tabaci sunflower leaf disc spray test; conditions: foliar, 168 h, sunflower leaf discs sprayed at 200 ppm, mixed ages, mortality after 7 days
Description: Sunflower leaf discs were placed on agar in a 24-well microtiter plate and sprayed with test solutions at an application rate of 200 ppm. […] After drying, the leaf discs were infested with a thrip population of mixed ages. After an incubation period of 7 days, samples were checked for mortality.

[8] = tested on: Tetranychus urticae (two-spotted spider mite); assay: Tetranychus urticae bean leaf disc spray test; conditions: foliar, 192 h, bean leaf discs sprayed at 200 ppm, mixed ages, egg, larval and adult mortality 8 days later
How it was run: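 Leaf discs of bean on agar were sprayed at 200 ppm, dried, then infested with mixed-age mites. Egg, larval and adult mortality were scored 8 days later.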

Cc1nc(C2=CC(c3cc(Cl)cc(Cl)c3)(C(F)(F)F)OC2)ccc1C(=O)NCC(=O)NCC(F)(F)F (stereo not shown) [Compound C5]
≥ 80%: pest or weed control at 12.5 ppm [1] | pest or weed control at 200 ppm [2] | pest or weed control at 200 ppm [3] | pest or weed control at 200 ppm [4] | pest or weed control at 200 ppm [5] | pest or weed control at 12.5 ppm [6] | pest or weed control at 200 ppm [7] | pest or weed control at 200 ppm [8]

Cc1nc(C2=CC(c3cc(Cl)cc(Cl)c3)(C(F)(F)F)OC2)ccc1C(=O)NC1CS(=O)(=O)C1 (stereo not shown) [Compound C13]
≥ 80%: pest or weed control at 12.5 ppm [1] | pest or weed control at 200 ppm [2] | pest or weed control at 200 ppm [3] | pest or weed control at 200 ppm [4] | pest or weed control at 200 ppm [5] | pest or weed control at 12.5 ppm [6] | pest or weed control at 200 ppm [7] | pest or weed control at 200 ppm [8]

Cc1cc(C2=CO[C@@](c3cc(Cl)cc(Cl)c3)(C(F)(F)F)C2)ccc1C(=O)NCC(=O)NCC(F)(F)F [Compound D5, 4-[(2S)-2-(3,5-dichlorophenyl)-2-(trifluoromethyl)-3H-furan-4-yl]-2-methyl-N-[2-oxo-2-(2,2,2-trifluoroethylamino)ethyl]benzamide]
≥ 80%: pest or weed control at 12.5 ppm [1] | pest or weed control at 200 ppm [2] | pest or weed control at 200 ppm [3] | pest or weed control at 200 ppm [4] | pest or weed control at 200 ppm [5] | pest or weed control at 12.5 ppm [6] | pest or weed control at 200 ppm [7] | pest or weed control at 200 ppm [8]

Cc1cc(C2=CC(c3cc(Cl)cc(Cl)c3)(C(F)(F)F)OC2)ccc1C(=O)NCc1ccccn1 (stereo not shown) [Compound D15]
≥ 80%: pest or weed control at 12.5 ppm [1] | pest or weed control at 200 ppm [2] | pest or weed control at 200 ppm [3] | pest or weed control at 200 ppm [4] | pest or weed control at 200 ppm [5] | pest or weed control at 12.5 ppm [6] | pest or weed control at 200 ppm [7] | pest or weed control at 200 ppm [8]

O=C(CNC(=O)c1ccc(C2=CC(c3cc(Cl)cc(Cl)c3)(C(F)(F)F)OC2)nc1Cl)NCC(F)(F)F (stereo not shown) [Compound F1, 2-Chloro-6-[5-(3,5-dichloro-phenyl)-5-trifluoromethyl-2,5-dihydro-furan-3-yl]-N-[(2,2,2-trifluoro-ethylcarbamoyl)-methyl]-nicotinamide]
≥ 80%: pest or weed control at 12.5 ppm [1] | pest or weed control at 200 ppm [2] | pest or weed control at 200 ppm [3] | pest or weed control at 200 ppm [4] | pest or weed control at 200 ppm [5] | pest or weed control at 12.5 ppm [6] | pest or weed control at 200 ppm [7] | pest or weed control at 200 ppm [8]
